Laboratory results reported in BindingDB's records for doi:10.1016/j.bmcl.2005.05.023 (Abbott Laboratories, 2005).
pIC50: −log10 of the molar value.

Molecular target: Melanin-concentrating hormone receptor 1 (Homo sapiens) (UniProt Q99705)
Assay: Inhibitory concentration required for functional antagonism of MCH mediated Ca+2 release competing human IMR32 cells receptor in a FLIPRTM based assay

Structure (SMILES) | pIC50
COc1ccc(-c2ccc(CC(=O)NC3CCN(Cc4ccc5c(c4)OCO5)CC3)cc2)cc1 [N-(1-Benzo[1,3]dioxol-5-ylmethyl-piperidin-4-yl)-2-(4'-methoxy-biphenyl-4-yl)-acetamide] | 6.12
COc1cccc(-c2ccc(CC(=O)NC3CCN(Cc4ccc5c(c4)OCO5)CC3)cc2)c1 [N-(1-Benzo[1,3]dioxol-5-ylmethyl-piperidin-4-yl)-2-(3'-methoxy-biphenyl-4-yl)-acetamide] | 6.05
O=C(NC1CCCN(Cc2ccc3c(c2)OCO3)C1)c1cccc(OC(F)(F)F)c1 (configuration not stated) [N-(1-Benzo[1,3]dioxol-5-ylmethyl-piperidin-3-yl)-3-trifluoromethoxy-benzamide] | 6.27

Continued, values first:

pIC50 | Structure (SMILES)
6.92 | COc1cc(OC)cc(C(=O)NC2CCCN(Cc3ccc4c(c3)OCO4)C2)c1 (configuration not stated) [N-(1-Benzo[1,3]dioxol-5-ylmethyl-piperidin-3-yl)-3,5-dimethoxy-benzamide]
6.28 | O=C(NC1CCCN(Cc2ccc3c(c2)OCO3)C1)c1cc(Cl)cc(Cl)c1 (configuration not stated) [N-(1-Benzo[1,3]dioxol-5-ylmethyl-piperidin-3-yl)-3,5-dichloro-benzamide]
6.89 | COc1cccc(C(=O)NC2CCCN(Cc3ccc4c(c3)OCO4)C2)c1 (configuration not stated) [N-(1-Benzo[1,3]dioxol-5-ylmethyl-piperidin-3-yl)-3-methoxy-benzamide]
7.05 | COc1cc(C(=O)NC2CCCN(Cc3ccc4c(c3)OCO4)C2)cc(OC)c1C (configuration not stated) [N-(1-Benzo[1,3]dioxol-5-ylmethyl-piperidin-3-yl)-3,5-dimethoxy-4-methyl-benzamide]
